Results reported in patent publication US20200179426A1, “METHODS OF USE FOR OENOTHEIN A AND B FROM EPILOBIUM SPECIES” (EPILOBIUM, INC., priority 2017, published 2020).

Key:
[1] = system: hen's-egg chorioallantoic membrane (CAM); experiment: hen's-egg chorioallantoic membrane (CAM) irritation model with 15% lactic acid as standard irritant; settings: oenothein B extract at 1% (weight to volume) dilution; applied before the irritant (15% lactic acid), simulating prophylactic use
Protocol: In the hen's-egg chorioallantoic membrane (CAM) model, in which the CAM is treated with 15% lactic acid as a standard irritant, the development of manifestations of membrane irritation were tracked and scored according to published methods for assessing irritancy. A sample of the oenothein B extract from Canadian Willow herb described in Example 1 was tested at a 1% (weight to volume) dilution for activity in the CAM model.

[2] = xanthine oxidase/acetaldehyde spectrophotometric free radical scavenging assay; assay type: biochemical
Protocol: The scavenging of free super oxide radicals is quantitated spectrometrically and expressed in terms of percentage of radicals scavenged. Assays were performed with 1% (w/v) and 0.1% (w/v) dilutions of the dried extract, which yielded up to 100% scavenging activity and up to 99% scavenging activity respectively.

oenothein B
decrease in irritation [1]: up to 70% | scavenging activity (percentage of superoxide radicals scavenged) ([2]; 0.1% (w/v) dilution of the dried extract): up to 99% | scavenging activity (percentage of superoxide radicals scavenged) ([2]; 1% (w/v) dilution of the dried extract): up to 100%
